Laboratory results reported in article PMC3670040, “Structure of Lipid Kinase p110β/p85β Elucidates an Unusual SH2-Domain-Mediated Inhibitory Mechanism” (Molecular Cell, 2011).
Square brackets hold non-standard residues; d marks the D form. Ends that are not written are not given here. pY = N[C@@H](Cc1ccc(OP(=O)(O)O)cc1)C(=O)O

Test system: p110β/p85β-nicSH2
Assay: [γ32P]-ATP nitrocellulose-binding assay of PIP3 production
Assay type: biochemical, mouse
Description: or absence of 10 μM PDGF bis-phosphopeptide. Reactions were carried out with 1 μCi [γ32P]-ATP per reaction, with 100 μM ATP and 1 mg/ml total “brain lipids” or 1.5 mM diC8-PIP2/POPS vesicles for 60 min. The vesicle compositions are indicated.
(B) Integrated intensities of the spots using the “brain liposomes” (left panel) or diC8-PIP2/POPS liposomes (Invitrogen) (right panel), quantitated with the ImageQuant software.
The bars represent standard deviations of the mean for two measurements. The hatched bars are for reactions in the presence of PDGF bis-phosphopeptide.
(C) SDS PAGE analysis of the proteins used for the assays in (A and B). Samples of 10 μl of […] protein solutions for each of the reaction were analyzed on a 4-12% NuPAGE Novex Bis-Tris gel in MES running buffer (Invitrogen). The upper band is the p110 subunit and the lower band is the regulatory subunit.
(D) Stereo view of the contacts between the p85β-cSH2 domain and the C-lobe of the kinase domain. The Tyr677-p85β (red) inserts into a hydrophobic groove between the two elbows kα7/kα8 (yellow) and kα11/kα12 (orange). Tyr677-p85β also makes a potential hydrogen bond with Ser1046-p110β (dashed black line).
To determine the effect of receptor tyrosine kinases (RTK) on PI3K activity, the assays were performed in absence or presence of 10 μM pY peptides:
7. Mm-PDGFR (pY2): ESDGG(pY)MDMSKDESID(pY)VPMLDMKGDIKYADIE (residues
10. Hs-PDGFR-pY740+5 position 5 mutated to P: DGG(pY)MDMSP
11. Hs-PDGFR-pY740+5 position 5 mutated to A: DGG(pY)MDMSA
12. Hs-PDGFR-pY740+5 position 5 mutated to S: DGG(pY)MDMSS
13. […]
The reactions were stopped by addition of 10 μl of stop/detection buffer (1X Stop & Detect Buffer B, 4 nM ADP Alexa633 Tracer, 109 μg/ml ADP2 antibody), followed by 1 h equilibration. Fluorescence polarization was measured on a PHERAStar plus HTS microplate reader (BMG Labtech), using a fluorescence polarization module with excitation centered at 633 nm and emission at 650 nm. […]
The PIP3 lipids produced in PI3K in vitro assays as described above were also measured by a mass-spectrometry based assay (Clark et al.). […]

fold activation by pY2, PIP3 formation, brain lipids (p110β/p85β-nicSH2, 10 μM pY2, 1 mg/ml brain lipids (5% PIP2, 20% PS, 15% PC, 45% PE, 5% sphingomyelin, 10% cholesterol), 100 μM ATP, 60 min): 10 fold
fold activation by pY2, PIP3 formation, diC8-PIP2/POPS liposomes (p110β/p85β-nicSH2, 10 μM pY2, 1.5 mM diC8-PIP2/POPS, 100 μM ATP, 60 min): 16 fold
effect on lipid kinase activity of p110β SH2-containing complexes, PIP3 formation (radioactive phosphorylation assay, Figures S2A–S2C): stimulates lipid kinase activity
Substance: ESDGG[pY]MDMSKDESID[pY]VPMLDMKGDIKYADIE [pY2, bis-phosphopeptide (PDGFR 735–767, with pY740 and pY751)]
